Numbered stars: 1 amine (or outer) side, 2 acyl side, 3 side chain; on linkers, the order of the positions; unused ones are H or OH. Square brackets hold non-standard residues; d marks the D form. Peptide text beside a SMILES is read from it. * marks the point of attachment. ξ: configuration not given here. X1 = N=C1NCC(C(O)C(N[*:1])C(=O)[*:2])N1C1OC(CO)C(O)C(O)C1O; ξEnduracididine(βξ-OH,4'ξ) = N=C1NCC(C(O)C(N)C(=O)O)N1; X2 = OCC1OC(OC2C(CO)OC(*)C(O)C2O)C(O)C(O)C1O; Diphenylacetyl = O=C(C(c1ccccc1)c1ccccc1)*; ξPhe(βξ-Me) = CC(c1ccccc1)C(N)C(=O)O
Key:
Test in all cases: In vitro antibacterial evaluation: minimum inhibitory concentration (MIC), broth dilution method
Assay type in all cases: cell-based
Enterococcus sp. = test system: Enterococcus sp.
Procedure: (§1) The minimum inhibitory concentration (MIC), the lowest concentration of the antibiotic which inhibits growth of the test organism, is determined by the broth dilution method using Muller-Hinton II […] (Baltimore Biological Laboratories) following the recommendations of the National Committee for Clinical Laboratory Standards [Methods for dilution antimicrobial susceptibility tests for bacteria that grow aerobically, approved standard M7-A2, National Committee for Clinical Laboratory Standards, Villanova, Pa].
(§2) An inoculum level of 5×10^5 CFU/mL, and a range of antibiotic concentrations (64-0.06 μg/mL) is used. […] The test organisms include a spectrum of Gram-positive bacteria comprised of Staphylococcus sp., Streptococcus sp. and Enterococcus sp. These organisms include recent clinical isolates that are resistant to methicillin, penicillin and/or vancomycin.

Staphylococcus sp. = conditions: for MIC Staphylococcus aureus-SMITH (GC 4543): strain GC 4543; for MIC Coagulase Negative Staphylococcus (GC 4548): strain GC 4548; for MIC Coagulase Negative Staphylococcus (GC 4549): strain GC 4549; for MIC Coagulase Negative Staphylococcus (GC 4551): strain GC 4551; for MIC Coagulase Negative Staphylococcus (GC 4537): strain GC 4537; for MIC Coagulase Negative Staphylococcus (GC 4538): strain GC 4538; for MIC Coagulase Negative Staphylococcus (GC 4547): strain GC 4547; for MIC Staphylococcus haemolyticus (GC 4546): strain GC 4546; for MIC Coagulase Negative Staphylococcus (ID-3941): strain ID-3941
Procedure: as §1, §2

Streptococcus sp. = conditions: for MIC Streptococcus pyogenes (ID-3187): strain ID-3187
Procedure: as §1, §2

Escherichia coli = test system: Escherichia coli
Procedure: as §1, §2

[1] = Enterococcus avium (GC 4558), 18 hours at 35° C.
[2] = broth dilution, inoculum 5×10^5 CFU/mL, 18 hours at 35° C.
[3] = broth dilution, 18 hours at 35° C.

CC(c1ccccc1)C1NC(=O)CNC(=O)C(CO)NC(=O)C(C(O)C2CNC(=N)N2C2OC(CO)C(O)C(O)C2O)NC(=O)C(C(O)C2CNC(=N)N2)NC(=O)C(Cc2ccc(OC3OC(CO)C(OC4OC5COC(c6ccc(C(=O)c7cc(I)c(I)c(I)c7)cc6)OC5C(O)C4O)C(O)C3O)cc2)NC1=O (stereo not shown) [Example 187]
64 µg/mL: MIC Enterococcus faecalis (ATCC 29212) (Enterococcus sp.; Enterococcus faecalis (ATCC 29212), 18 hours at 35° C.) | MIC Enterococcus faecalis (GC 2242) (Enterococcus sp.; Enterococcus faecalis (GC 2242), 18 hours at 35° C.) | MIC Enterococcus faecalis (GC 4552) (Enterococcus sp.; Enterococcus faecalis (GC 4552), 18 hours at 35° C.) | MIC Enterococcus faecalis (GC 4554) (Enterococcus sp.; Enterococcus faecalis (GC 4554), 18 hours at 35° C.) | MIC Enterococcus faecalis (ATCC 29212) (Enterococcus sp.; [2]) | MIC Enterococcus faecalis (GC 2242) (Enterococcus sp.; [2]) | MIC Enterococcus faecalis (GC 4552) (Enterococcus sp.; [2]) | MIC Enterococcus faecalis (GC 4554) (Enterococcus sp.; [2]) | MIC Staphylococcus aureus (ATCC 29213) (Staphylococcus sp.; strain ATCC 29213) | MIC Staphylococcus aureus (GC 1131) (Staphylococcus sp.; strain GC 1131) | MIC Staphylococcus aureus (GC 3051) (Staphylococcus sp.; strain GC 3051) | MIC Staphylococcus aureus (GC 4541) (Staphylococcus sp.; strain GC 4541) | MIC Staphylococcus aureus (GC 4542) (Staphylococcus sp.; strain GC 4542) | MIC Staphylococcus aureus-SMITH (GC 4543) (Staphylococcus sp.) | MIC Staphylococcus aureus (GC 4544) (Staphylococcus sp.; strain GC 4544) | MIC Staphylococcus aureus (GC 4545) (Staphylococcus sp.; strain GC 4545) | MIC Coagulase Negative Staphylococcus (GC 4549) (Staphylococcus sp.)
32 µg/mL: MIC Enterococcus faecalis (GC 4553) (Enterococcus sp.; Enterococcus faecalis (GC 4553), 18 hours at 35° C.) | MIC Enterococcus faecalis (GC 4553) (Enterococcus sp.; [2]) | MIC Staphylococcus aureus (GC 3053) (Staphylococcus sp.; strain GC 3053) | MIC Coagulase Negative Staphylococcus (GC 4551) (Staphylococcus sp.) | MIC Coagulase Negative Staphylococcus (GC 6257) (Staphylococcus sp.; strain GC 6257)
<0.12 µg/mL: MIC Streptococcus agalactiae (GC 4564) (Streptococcus sp.; Streptococcus agalactiae (GC 4564), 18 hours at 35° C.) | MIC Streptococcus pneumoniae (ATCC 6301) (Streptococcus sp.; Streptococcus pneumoniae (ATCC 6301), 18 hours at 35° C.) | MIC Streptococcus pneumoniae (GC 1894) (Streptococcus sp.; Streptococcus pneumoniae (GC 1894), 18 hours at 35° C.) | MIC Streptococcus pneumoniae (GC 4565) (Streptococcus sp.; Streptococcus pneumoniae (GC 4565), 18 hours at 35° C.) | MIC Streptococcus agalactiae (GC 4564) (Streptococcus sp.; [2]) | MIC Streptococcus pneumoniae (ATCC 6301) (Streptococcus sp.; [2]) | MIC Streptococcus pneumoniae (GC 1894) (Streptococcus sp.; [2]) | MIC Streptococcus pneumoniae (GC 4565) (Streptococcus sp.; [2])
0.5 µg/mL: MIC Streptococcus pyogenes (GC 4563) (Streptococcus sp.; Streptococcus pyogenes (GC 4563), 18 hours at 35° C.) | MIC Streptococcus pyogenes (GC 4563) (Streptococcus sp.; [2])
16 µg/mL: MIC Enterococcus avium (GC 4558) (Enterococcus sp.; [1]) | MIC Enterococcus faecalis (GC 2691) (Enterococcus sp.; Enterococcus faecalis (GC 2691), 18 hours at 35° C.) | MIC Enterococcus faecalis (GC 6189) (Enterococcus sp.; Enterococcus faecalis (GC 6189), 18 hours at 35° C.) | MIC Enterococcus faecium (GC 2243) (Enterococcus sp.; Enterococcus faecium (GC 2243), 18 hours at 35° C.) | MIC Enterococcus faecium (GC 4557) (Enterococcus sp.; Enterococcus faecium (GC 4557), 18 hours at 35° C.) | MIC Enterococcus avium (GC 4558) (Enterococcus sp.; [2]) | MIC Enterococcus faecalis (GC 2691) (Enterococcus sp.; [2]) | MIC Enterococcus faecalis (GC 6189) (Enterococcus sp.; [2]) | MIC Enterococcus faecium (GC 2243) (Enterococcus sp.; [2]) | MIC Enterococcus faecium (GC 4557) (Enterococcus sp.; [2]) | MIC Coagulase Negative Staphylococcus (GC 4548) (Staphylococcus sp.)

CC(c1ccccc1)C1NC(=O)CNC(=O)C(CO)NC(=O)C(C(O)C2CNC(=N)N2C2OC(CO)C(O)C(O)C2O)NC(=O)C(C(O)C2CNC(=N)N2)NC(=O)C(Cc2ccc(OC3OC(COC(=O)Cc4ccccc4)C(OC4OC(CO)C(O)C(O)C4O)C(O)C3O)cc2)NC1=O (stereo not shown) [Example 98b]
16 µg/mL: MIC Staphylococcus aureus (ATCC 29213) (Staphylococcus sp.; [3]) | MIC Staphylococcus aureus (GC 1131) (Staphylococcus sp.; [3]) | MIC Staphylococcus aureus (GC 4535) (Staphylococcus sp.; [3]) | MIC Coagulase Negative Staphylococcus (GC 4537) (Staphylococcus sp.) | MIC Coagulase Negative Staphylococcus (GC 4537) (Staphylococcus sp.; [3])
8 µg/mL: MIC Staphylococcus aureus SMITH (GC 4536) (Staphylococcus sp.; [3]) | MIC Coagulase Negative Staphylococcus (GC 4538) (Staphylococcus sp.) | MIC Coagulase Negative Staphylococcus (GC 4538) (Staphylococcus sp.; [3]) | MIC Coagulase Negative Staphylococcus (GC 4547) (Staphylococcus sp.) | MIC Coagulase Negative Staphylococcus (GC 4547) (Staphylococcus sp.; [3]) | MIC Staphylococcus aureus-SMITH (GC 4536) (Staphylococcus sp.; strain SMITH GC 4536, broth dilution, 18 hours at 35° C.)
2 µg/mL: MIC Escherichia coli (GC 4560) (Escherichia coli; strain GC 4560)
64 µg/mL: MIC Enterococcus faecalis (ATCC 29212) (Enterococcus sp.; strain ATCC 29212) | MIC Enterococcus faecalis (GC 2242) (Enterococcus sp.; strain GC 2242)

CC(c1ccccc1)C1NC(=O)CNC(=O)C(CO)NC(=O)C(C(O)C2CNC(=N)N2C2OC(CO)C(O)C(O)C2O)NC(=O)C(C(O)C2CNC(=N)N2)NC(=O)C(Cc2ccc(OC3OC(COC(=O)C(c4ccccc4)c4ccccc4)C(OC4OC(CO)C(O)C(O)C4O)C(O)C3O)cc2)NC1=O (stereo not drawn) [Example 96b, Cyclo[glycyl-β-methylphenylalanyl-O-[6-O-(diphenylacetyl)-4-O-hexopyranosylhexopyranosyl]tyrosyl-3-(2-iminoimidazolidin-4-yl)seryl-3-(3-hexopyranosyl-2-iminoimidazolidin-4-yl)serylseryl]]
4 µg/mL: MIC Enterococcus faecalis (GC 2242) (Enterococcus sp.; strain GC 2242) | MIC Enterococcus avium (GC 4558) (Enterococcus sp.; strain GC 4558)
8 µg/mL: MIC Enterococcus faecalis (ATCC 29212) (Enterococcus sp.; strain ATCC 29212) | MIC Enterococcus faecium (GC 2243) (Enterococcus sp.; strain GC 2243) | MIC Enterococcus faecalis (GC 4552) (Enterococcus sp.; strain GC 4552) | MIC Enterococcus faecalis (GC 4553) (Enterococcus sp.; strain GC 4553) | MIC Enterococcus faecalis (GC 4554) (Enterococcus sp.; strain GC 4554) | MIC Enterococcus faecium (GC 4556) (Enterococcus sp.; strain GC 4556)
1 µg/mL: MIC Enterococcus faecium (GC 4557) (Enterococcus sp.; strain GC 4557) | MIC Staphylococcus aureus (ATCC 29213) (Staphylococcus sp.; [3]) | MIC Staphylococcus aureus (GC 4541) (Staphylococcus sp.; [3]) | MIC Staphylococcus aureus (GC 4545) (Staphylococcus sp.; [3]) | MIC Staphylococcus haemolyticus (GC 4546) (Staphylococcus sp.) | MIC Staphylococcus haemolyticus (GC 4546) (Staphylococcus sp.; [3]) | MIC Coagulase Negative Staphylococcus (GC 4547) (Staphylococcus sp.) | MIC Coagulase Negative Staphylococcus (GC 4547) (Staphylococcus sp.; [3])
0.25 µg/mL: MIC Streptococcus agalactiae (GC 4564) (Streptococcus sp.; strain GC 4564) | MIC Streptococcus pyogenes (ID-3187) (Streptococcus sp.)
2 µg/mL: MIC Staphylococcus aureus (GC 1131) (Staphylococcus sp.; [3]) | MIC Staphylococcus aureus (GC 4542) (Staphylococcus sp.; [3]) | MIC Staphylococcus aureus (GC 4544) (Staphylococcus sp.; [3]) | MIC Staphylococcus aureus-SMITH (GC 4543) (Staphylococcus sp.; 18 hours at 35° C.) | MIC Staphylococcus aureus-SMITH (GC 4543) (Staphylococcus sp.; [3]) | MIC Coagulase Negative Staphylococcus (GC 4551) (Staphylococcus sp.) | MIC Coagulase Negative Staphylococcus (GC 4551) (Staphylococcus sp.; [3])
<0.12 µg/mL: MIC Streptococcus pneumoniae (GC 4565) (Streptococcus sp.; strain GC 4565)
0.5 µg/mL: MIC Coagulase Negative Staphylococcus (GC 4548) (Staphylococcus sp.) | MIC Coagulase Negative Staphylococcus (GC 4548) (Staphylococcus sp.; [3]) | MIC Coagulase Negative Staphylococcus (GC 4549) (Staphylococcus sp.) | MIC Coagulase Negative Staphylococcus (GC 4549) (Staphylococcus sp.; [3]) | MIC Coagulase Negative Staphylococcus (ID-3941) (Staphylococcus sp.) | MIC Coagulase Negative Staphylococcus (ID-3941) (Staphylococcus sp.; [3])

CC(c1ccccc1)C1NC(=O)CNC(=O)C(COC(=O)C(c2ccccc2)c2ccccc2)NC(=O)C(C(O)C2CNC(=N)N2C2OC(CO)C(O)C(O)C2O)NC(=O)C(C(O)C2CNC(=N)N2)NC(=O)C(Cc2ccc(OC3OC(CO)C(OC4OC(CO)C(O)C(O)C4O)C(O)C3O)cc2)NC1=O (stereo not drawn) [Example 96a, Cyclo[glycyl-β-methylphenylalanyl-O-[4-O-hexopyranosylhexopyranosyl)tyrosyl-3-(2-iminoimidazolidin-4-yl)seryl-3-(3-hexopyranosyl-2-iminoimidazolidin-4-yl)seryl-O-(diphenylacetyl)-seryl]] (cyclo(G[ξPhe(βξ-Me)]Y(X2)[ξEnduracididine(βξ-OH,4'ξ)][X1]S(Diphenylacetyl)); configuration not given here)
64 µg/mL: MIC Coagulase Negative Staphylococcus (GC 4549) (Staphylococcus sp.) | MIC Coagulase Negative Staphylococcus (GC 4549) (Staphylococcus sp.; [3]) | MIC Coagulase Negative Staphylococcus (ID-3941) (Staphylococcus sp.) | MIC Coagulase Negative Staphylococcus (ID-3941) (Staphylococcus sp.; [3])
16 µg/mL: MIC Streptococcus pneumoniae (GC 4565) (Streptococcus sp.; strain GC 4565)
32 µg/mL: MIC Enterococcus faecium (GC 4557) (Enterococcus sp.; strain GC 4557) | MIC Streptococcus agalactiae (GC 4564) (Streptococcus sp.; strain GC 4564) | MIC Streptococcus pyogenes (ID-3187) (Streptococcus sp.)

CC(c1ccccc1)C1NC(=O)CNC(=O)C(CO)NC(=O)C(C(O)C2CNC(=N)N2C2OC(CO)C(O)C3OC(C)(C)OC32)NC(=O)C(C(O)C2CNC(=N)N2)NC(=O)C(Cc2ccc(OC3OC(CO)C(OC4OC5COC(C)(C)OC5C5OC(C)(C)OC45)C4OC(C)(C)OC34)cc2)NC1=O (stereo not drawn) [Example 229b, Cyclo[glycyl-β-methylphenylalanyl-O-[2,3-O-isopropylidene-4-O-(2,3:4,6-di-O-isopropylidene-hexopyranosyl)hexopyranosyl]tyrosyl-3-(2-iminoimidazolidin-4-yl)seryl-3-[2-imino-(2,3-O-isopropylidenehexopyranosyl)imidazolidin-4-yl]serylseryl]]
32 µg/mL: MIC Escherichia coli (GC 4560) (Escherichia coli; Escherichia coli (GC 4560), 18 hours at 35° C.)
64 µg/mL: MIC Enterococcus avium (GC 4558) (Enterococcus sp.; [1]) | MIC Enterococcus avium (GC 4558) (Enterococcus sp.; [2])
